Tested on: healthy volunteers (bent side of the forearm)
Assay: 24 hour-occlusion patch test (Finn Chamber) of the original specimen
Assay type: in vivo, human
Settings: 46 persons, 0.03 ml original specimen
Procedure: “Test Method Using Patch Test”
The test was conducted using a Finn Chamber (8 mm in diameter) with 24 hour-occlusion.
Test subjects were 46 male and female healthy volunteers (33 males and 13 females) whose ages range from 22 to 59 (average 42); 0.03 ml of the original specimen of alkylene polyglycol dineopentanoate was applied on the bent side of the forearm of the test subjects for 24 hours. The application site was secured with an elastic bandage; three hours after the removal of the bandage and the adhesive plaster the first evaluation (after-24-hours evaluation) was conducted according to the evaluation criteria of Table 1, and 24 hours later another evaluation (after-48-hours evaluation) was conducted with the same criteria.

CC(COC(=O)C(C)(C)C)OCC(C)OCC(C)OC(=O)C(C)(C)C (stereo not shown) [Example 1, Tripropyleneglycol dineopentanoate]
Equivocal ± (mild erythema), number of subjects (evaluation time 24 hrs): 0 | Negative − (no reaction), number of subjects (evaluation time 24 hrs): 46 | Positive + (Weakly positive: erythema), number of subjects (evaluation time 24 hrs): 0 | Positive ++ (Moderately positive: erythema + edema), number of subjects (evaluation time 24 hrs): 0 | Positive +++ (Strongly positive), number of subjects (evaluation time 24 hrs): 0 | Positive ++++ (Strongest positive: large blister), number of subjects (evaluation time 24 hrs): 0 | Positive ratio (evaluation time 24 hrs): 0% | Equivocal ± (mild erythema), number of subjects (evaluation time 48 hrs): 0 | Negative − (no reaction), number of subjects (evaluation time 48 hrs): 46 | Positive + (Weakly positive: erythema), number of subjects (evaluation time 48 hrs): 0 | Positive ++ (Moderately positive: erythema + edema), number of subjects (evaluation time 48 hrs): 0 | Positive +++ (Strongly positive), number of subjects (evaluation time 48 hrs): 0 | Positive ++++ (Strongest positive: large blister), number of subjects (evaluation time 48 hrs): 0 | Positive ratio (evaluation time 48 hrs): 0%

CC(COC(=O)C(C)(C)C)OCC(C)OC(=O)C(C)(C)C (stereo not shown) [Example 2, Dipropyleneglycol dineopentanoate]
Equivocal ± (mild erythema), number of subjects (evaluation time 24 hrs): 0 | Negative − (no reaction), number of subjects (evaluation time 24 hrs): 46 | Positive + (Weakly positive: erythema), number of subjects (evaluation time 24 hrs): 0 | Positive ++ (Moderately positive: erythema + edema), number of subjects (evaluation time 24 hrs): 0 | Positive +++ (Strongly positive), number of subjects (evaluation time 24 hrs): 0 | Positive ++++ (Strongest positive: large blister), number of subjects (evaluation time 24 hrs): 0 | Positive ratio (evaluation time 24 hrs): 0% | Equivocal ± (mild erythema), number of subjects (evaluation time 48 hrs): 0 | Negative − (no reaction), number of subjects (evaluation time 48 hrs): 46 | Positive + (Weakly positive: erythema), number of subjects (evaluation time 48 hrs): 0 | Positive ++ (Moderately positive: erythema + edema), number of subjects (evaluation time 48 hrs): 0 | Positive +++ (Strongly positive), number of subjects (evaluation time 48 hrs): 0 | Positive ++++ (Strongest positive: large blister), number of subjects (evaluation time 48 hrs): 0 | Positive ratio (evaluation time 48 hrs): 0%

CC(COC(=O)C(C)(C)C)OCC(C)OCC(C)OCC(C)OC(=O)C(C)(C)C (stereo not shown) [Example 3, Tetrapropyleneglycol dineopentanoate]
Equivocal ± (mild erythema), number of subjects (evaluation time 24 hrs): 0 | Negative − (no reaction), number of subjects (evaluation time 24 hrs): 46 | Positive + (Weakly positive: erythema), number of subjects (evaluation time 24 hrs): 0 | Positive ++ (Moderately positive: erythema + edema), number of subjects (evaluation time 24 hrs): 0 | Positive +++ (Strongly positive), number of subjects (evaluation time 24 hrs): 0 | Positive ++++ (Strongest positive: large blister), number of subjects (evaluation time 24 hrs): 0 | Positive ratio (evaluation time 24 hrs): 0% | Equivocal ± (mild erythema), number of subjects (evaluation time 48 hrs): 0 | Negative − (no reaction), number of subjects (evaluation time 48 hrs): 46 | Positive + (Weakly positive: erythema), number of subjects (evaluation time 48 hrs): 0 | Positive ++ (Moderately positive: erythema + edema), number of subjects (evaluation time 48 hrs): 0 | Positive +++ (Strongly positive), number of subjects (evaluation time 48 hrs): 0 | Positive ++++ (Strongest positive: large blister), number of subjects (evaluation time 48 hrs): 0 | Positive ratio (evaluation time 48 hrs): 0%

CCCCCCCCC(=O)OCCCCCCC(C)C [compound 3, Isononyl nonanoate, reference compound]
Equivocal ± (mild erythema), number of subjects (evaluation time 24 hrs): 5 | Negative − (no reaction), number of subjects (evaluation time 24 hrs): 31 | Positive + (Weakly positive: erythema), number of subjects (evaluation time 24 hrs): 5 | Positive ++ (Moderately positive: erythema + edema), number of subjects (evaluation time 24 hrs): 4 | Positive +++ (Strongly positive), number of subjects (evaluation time 24 hrs): 1 | Positive ++++ (Strongest positive: large blister), number of subjects (evaluation time 24 hrs): 0 | Positive ratio (evaluation time 24 hrs): 22% | Equivocal ± (mild erythema), number of subjects (evaluation time 48 hrs): 5 | Negative − (no reaction), number of subjects (evaluation time 48 hrs): 32 | Positive + (Weakly positive: erythema), number of subjects (evaluation time 48 hrs): 4 | Positive ++ (Moderately positive: erythema + edema), number of subjects (evaluation time 48 hrs): 5 | Positive +++ (Strongly positive), number of subjects (evaluation time 48 hrs): 0 | Positive ++++ (Strongest positive: large blister), number of subjects (evaluation time 48 hrs): 0 | Positive ratio (evaluation time 48 hrs): 20%

Isocetyl oleate [compound 1, reference compound]
Equivocal ± (mild erythema), number of subjects (evaluation time 24 hrs): 3 | Negative − (no reaction), number of subjects (evaluation time 24 hrs): 39 | Positive + (Weakly positive: erythema), number of subjects (evaluation time 24 hrs): 2 | Positive ++ (Moderately positive: erythema + edema), number of subjects (evaluation time 24 hrs): 2 | Positive +++ (Strongly positive), number of subjects (evaluation time 24 hrs): 0 | Positive ++++ (Strongest positive: large blister), number of subjects (evaluation time 24 hrs): 0 | Positive ratio (evaluation time 24 hrs): 8.7% | Equivocal ± (mild erythema), number of subjects (evaluation time 48 hrs): 2 | Negative − (no reaction), number of subjects (evaluation time 48 hrs): 40 | Positive + (Weakly positive: erythema), number of subjects (evaluation time 48 hrs): 4 | Positive ++ (Moderately positive: erythema + edema), number of subjects (evaluation time 48 hrs): 0 | Positive +++ (Strongly positive), number of subjects (evaluation time 48 hrs): 0 | Positive ++++ (Strongest positive: large blister), number of subjects (evaluation time 48 hrs): 0 | Positive ratio (evaluation time 48 hrs): 8.7%

Reference: US8404258B2, “External preparation for the skin” (Shiseido Company, Ltd., priority 2001, dated 2013)
